Measured values published in US10087229B2, “Peptide compound” (TAKEDA PHARMACEUTICAL COMPANY LIMITED, priority 2013, dated 2018).
Square brackets hold non-standard residues; d marks the D form. Peptide text beside a SMILES is read from it. αMeY = C[C@](N)(Cc1ccc(O)cc1)C(=O)O; αMeF = C[C@](N)(Cc1ccccc1)C(=O)O; Cha = N[C@@H](CC1CCCCC1)C(=O)O; Aib = CC(C)(N)C(=O)O

The molecules below were run on male C57BL/6J mouse (assay: 2-days continuous subcutaneous administration test (feeding suppressive activity)). Details: 10 nmol/kg/day, subcutaneous Alzet pump, 2-days cumulative food consumption, control (solvent alone) = 0%.
Format: in vivo
Method: 2-Days Continuous Subcutaneous Administration Test
The feeding suppressive activity of a test compound was examined by the method described below.
The test compound was dissolved in a solvent (50% DMSO) so that sustained release would occur at 10 nmol/kg/day, and the solution was filled in the Alzet Pump (DURECT Corporation, model: 1003D). The pump thus filled with the solution to be administered was immersed in physiological saline for priming, and then used. The pump was embedded by the following method. Each male C57BL/6J mouse at 8-9 weeks of age (20-26° C., allowed to take food and water ad libitum; 12-hour bright-12-hour dark cycle) was anesthetized; the skin in the upper back thereof was incised, and the above-mentioned pump was embedded subcutaneously; the incision was sutured. After weighing, this mouse was returned to the rearing cage (reared alone), and given previously weighed food; food consumption as of 2 days after the start of administration was measured. The food consumption was calculated by subtracting the amount of remaining food from the weight of the food given on the day of the start of administration. When the food consumption of a control group receiving administration of the solvent alone was regarded as a suppression rate of 0%, the feeding suppressive activity of each test compound was evaluated on the basis of 2-days cumulative food consumption after the start of administration. The food intake suppression rate (%) of the test compound was defined as (Food consumption of the control group−Food consumption of the test compound-administered group)/Food consumption of the control group×100.

Structure (SMILES) | Food intake suppression (%)
CC[C@H](C)[C@H](NC(=O)[C@H](C)NC(=O)[C@H](Cc1ccc(O)cc1)NC(=O)[C@H](CC(=O)O)NC(=O)[C@H](CO)NC(=O)[C@@H](NC(=O)[C@](C)(Cc1ccccc1)NC(=O)[C@@H](NC(=O)CNC(=O)[C@H](CCC(=O)O)NC(=O)C(C)(C)NC(=O)[C@@H](N)Cc1ccc(O)cc1)[C@@H](C)O)[C@@H](C)O)C(=O)NC(C)(C)C(=O)N[C@@H](CC(C)C)C(=O)N[C@@H](CC(=O)O)C(=O)N[C@@H](CCCCN)C(=O)N[C@@H](CCC(N)=O)C(=O)N[C@@H](C)C(=O)N[C@@H](CCC(N)=O)C(=O)N[C@@H](C)C(=O)N[C@@H](CCC(=O)O)C(=O)N[C@@H](Cc1ccccc1)C(=O)N[C@H](C(=O)N[C@@H](CCCCN)C(=O)N[C@@H](Cc1c[nH]c2ccccc12)C(=O)N[C@@H](CC(C)C)C(=O)N[C@@H](CC(C)C)C(=O)N[C@@H](CCCCN)C(=O)NCC(=O)NCC(=O)N1CCC[C@H]1C(=O)N[C@@H](CO)C(=O)N[C@@H](CO)C(=O)NCC(=O)N[C@@H](C)C(=O)N1CCC[C@H]1C(=O)N1CCC[C@H]1C(=O)N1CCC[C@H]1C(=O)N[C@@H](CO)C(N)=O)C(C)C [Example 5] (H-Y[Aib]EGT[αMeF]TSDYAI[Aib]LDKQAQAEFVKWLLKGGPSSGAPPPS-NH2) | 60.99
CC[C@H](C)[C@H](NC(=O)C(C)(C)NC(=O)[C@H](Cc1ccc(O)cc1)NC(=O)[C@H](CC(=O)O)NC(=O)[C@H](CO)NC(=O)[C@@H](NC(=O)[C@](C)(Cc1ccccc1)NC(=O)[C@@H](NC(=O)CNC(=O)[C@H](CCC(=O)O)NC(=O)C(C)(C)NC(=O)[C@@H](N)Cc1ccc(O)cc1)[C@@H](C)O)[C@@H](C)O)C(=O)NC(C)(C)C(=O)N[C@@H](CC(C)C)C(=O)N[C@@H](CC(=O)O)C(=O)N[C@@H](CCCCN)C(=O)N[C@@H](CCC(N)=O)C(=O)N[C@@H](C)C(=O)N[C@@H](CCC(N)=O)C(=O)N[C@@H](CO)C(=O)N[C@@H](CCC(=O)O)C(=O)N[C@@H](Cc1ccccc1)C(=O)N[C@H](C(=O)N[C@@H](CCCCN)C(=O)N[C@@H](Cc1c[nH]c2ccccc12)C(=O)N[C@@H](CC(C)C)C(=O)N[C@@H](CC(C)C)C(=O)N[C@@H](CCCCN)C(=O)NCC(=O)NCC(=O)N1CCC[C@H]1C(=O)N[C@@H](CO)C(=O)N[C@@H](CO)C(=O)NCC(=O)N[C@@H](C)C(=O)N1CCC[C@H]1C(=O)N1CCC[C@H]1C(=O)N1CCC[C@H]1C(=O)N[C@@H](CO)C(N)=O)C(C)C [Example 8] (H-Y[Aib]EGT[αMeF]TSDY[Aib]I[Aib]LDKQAQSEFVKWLLKGGPSSGAPPPS-NH2) | 48.34
CC[C@H](C)[C@H](NC(=O)C(C)(C)NC(=O)[C@H](Cc1ccc(O)cc1)NC(=O)[C@H](CC(=O)O)NC(=O)[C@H](CO)NC(=O)[C@@H](NC(=O)[C@](C)(Cc1ccccc1)NC(=O)[C@@H](NC(=O)CNC(=O)[C@H](CCC(=O)O)NC(=O)C(C)(C)NC(=O)[C@@H](N)Cc1ccc(O)cc1)[C@@H](C)O)[C@@H](C)O)C(=O)N[C@@](C)(Cc1ccccc1)C(=O)N[C@@H](CC(C)C)C(=O)N[C@@H](CC(=O)O)C(=O)N[C@@H](CCCCN)C(=O)N[C@@H](CCC(N)=O)C(=O)N[C@@H](C)C(=O)N[C@@H](CCC(N)=O)C(=O)N[C@@H](C)C(=O)N[C@@H](CCC(=O)O)C(=O)N[C@@H](Cc1ccccc1)C(=O)N[C@H](C(=O)N[C@@H](CCCCN)C(=O)N[C@@H](Cc1c[nH]c2ccccc12)C(=O)N[C@@H](CC(C)C)C(=O)N[C@@H](CC(C)C)C(=O)N[C@@H](CCCCN)C(=O)NCC(=O)NCC(=O)N1CCC[C@H]1C(=O)N[C@@H](CO)C(=O)N[C@@H](CO)C(=O)NCC(=O)N[C@@H](C)C(=O)N1CCC[C@H]1C(=O)N1CCC[C@H]1C(=O)N1CCC[C@H]1C(=O)N[C@@H](CO)C(=O)N[C@@H](CCCCN)C(N)=O)C(C)C [Example 13] (H-Y[Aib]EGT[αMeF]TSDY[Aib]I[αMeF]LDKQAQAEFVKWLLKGGPSSGAPPPSK-NH2) | 57.12
CC[C@H](C)[C@H](NC(=O)C(C)(C)NC(=O)[C@H](Cc1ccc(O)cc1)NC(=O)[C@H](CC(=O)O)NC(=O)[C@H](CO)NC(=O)[C@@H](NC(=O)[C@](C)(Cc1ccccc1)NC(=O)[C@@H](NC(=O)CNC(=O)[C@H](CCC(=O)O)NC(=O)C(C)(C)NC(=O)[C@@H](N)Cc1ccc(O)cc1)[C@@H](C)O)[C@@H](C)O)C(=O)N[C@@](C)(Cc1ccc(O)cc1)C(=O)N[C@@H](CC(C)C)C(=O)N[C@@H](CC(=O)O)C(=O)N[C@@H](CCCCN)C(=O)N[C@@H](CCC(N)=O)C(=O)N[C@@H](C)C(=O)N[C@@H](CCC(N)=O)C(=O)N[C@@H](C)C(=O)N[C@@H](CCC(=O)O)C(=O)N[C@@H](Cc1ccccc1)C(=O)N[C@H](C(=O)N[C@@H](CCCCN)C(=O)N[C@@H](Cc1c[nH]c2ccccc12)C(=O)N[C@@H](CC(C)C)C(=O)N[C@@H](CC(C)C)C(=O)N[C@@H](CCCCN)C(=O)NCC(=O)NCC(=O)N1CCC[C@H]1C(=O)N[C@@H](CO)C(=O)N[C@@H](CO)C(=O)NCC(=O)N[C@@H](C)C(=O)N1CCC[C@H]1C(=O)N1CCC[C@H]1C(=O)N1CCC[C@H]1C(=O)N[C@@H](CO)C(=O)N[C@@H](CCCCN)C(N)=O)C(C)C [Example 17] (H-Y[Aib]EGT[αMeF]TSDY[Aib]I[αMeY]LDKQAQAEFVKWLLKGGPSSGAPPPSK-NH2) | 55.42
CC(C)C[C@H](NC(=O)[C@H](CC(C)C)NC(=O)[C@H](Cc1c[nH]c2ccccc12)NC(=O)[C@H](CCCCN)NC(=O)[C@@H](NC(=O)[C@H](Cc1ccccc1)NC(=O)[C@H](CCC(=O)O)NC(=O)[C@H](C)NC(=O)[C@H](CCC(N)=O)NC(=O)[C@H](C)NC(=O)[C@H](CCC(N)=O)NC(=O)[C@H](CCCCN)NC(=O)[C@H](CC(=O)O)NC(=O)[C@H](CC(C)C)NC(=O)C(C)(C)NC(=O)[C@H](Cc1ccccc1)NC(=O)C(C)(C)NC(=O)[C@H](Cc1ccc(O)cc1)NC(=O)[C@H](CC(=O)O)NC(=O)[C@H](CO)NC(=O)[C@@H](NC(=O)[C@](C)(Cc1ccccc1)NC(=O)[C@@H](NC(=O)CNC(=O)[C@H](CCC(=O)O)NC(=O)C(C)(C)NC(=O)[C@@H](N)Cc1ccc(O)cc1)[C@@H](C)O)[C@@H](C)O)C(C)C)C(=O)N[C@@H](CCCCN)C(=O)NCC(=O)NCC(=O)N1CCC[C@H]1C(=O)N[C@@H](CO)C(=O)N[C@@H](CO)C(=O)NCC(=O)N[C@@H](C)C(=O)N1CCC[C@H]1C(=O)N1CCC[C@H]1C(=O)N1CCC[C@H]1C(=O)N[C@@H](CO)C(=O)N[C@@H](CCCCN)C(N)=O [Example 11] (H-Y[Aib]EGT[αMeF]TSDY[Aib]F[Aib]LDKQAQAEFVKWLLKGGPSSGAPPPSK-NH2) | 49.99
CC(C)C[C@H](NC(=O)[C@H](CC(C)C)NC(=O)[C@H](Cc1c[nH]c2ccccc12)NC(=O)[C@H](CCCCN)NC(=O)[C@@H](NC(=O)[C@H](Cc1ccccc1)NC(=O)[C@H](CCC(=O)O)NC(=O)[C@H](C)NC(=O)[C@H](CCC(N)=O)NC(=O)[C@H](C)NC(=O)[C@H](CCC(N)=O)NC(=O)[C@H](CCCCN)NC(=O)[C@H](CC(=O)O)NC(=O)[C@H](CC(C)C)NC(=O)[C@H](CC1CCCCC1)NC(=O)[C@H](CCCCN)NC(=O)C(C)(C)NC(=O)[C@H](Cc1ccc(O)cc1)NC(=O)[C@H](CC(=O)O)NC(=O)[C@H](CO)NC(=O)[C@@H](NC(=O)[C@](C)(Cc1ccccc1)NC(=O)[C@@H](NC(=O)CNC(=O)[C@H](CCC(=O)O)NC(=O)C(C)(C)NC(=O)[C@@H](N)Cc1ccc(O)cc1)[C@@H](C)O)[C@@H](C)O)C(C)C)C(=O)N[C@@H](CCCCN)C(=O)NCC(=O)NCC(=O)N1CCC[C@H]1C(=O)N[C@@H](CO)C(=O)N[C@@H](CO)C(=O)NCC(=O)N[C@@H](C)C(=O)N1CCC[C@H]1C(=O)N1CCC[C@H]1C(=O)N1CCC[C@H]1C(=O)N[C@@H](CO)C(=O)N[C@@H](CCCCN)C(N)=O [Example 16] (H-Y[Aib]EGT[αMeF]TSDY[Aib]K[Cha]LDKQAQAEFVKWLLKGGPSSGAPPPSK-NH2) | 54.24
